Like-named read-outs stand apart in the source and are kept apart here. Bounds are passed on as bounds.

One data set is described as follows: in vitro. The settings on record: human.
Data set [1] has as its system human cancer cell line A549 (carcinomic human alveolar basal epithelial cells). Put plainly: Cytotoxicity (antiproliferative) CCK-8 assay, A549. To be noted: for IC50: read-out: Cytotoxicity IC50 Lung A549; for toxicity toward A549 (in words): in vitro, CCK-8.
Text: (§1) The cytotoxicity of the new α-aminophosphine oxide and phosphonate acetals 4 and 5, β-keto-α-aminophosphonate 6, aziridines 7, 10 and 14, and allylic α-aminophosphine oxides and phosphonates 8, 9, 11, 12, 15 and 16 was investigated in vitro by checking their antiproliferative activities against the human cancer cell line A549 (carcinomic human alveolar basal epithelial cells). […] In order to assess growth inhibition, cell counting kit (CCK-8) assay was employed. […] Likewise, healthy lung cells, such as MRC-5 non-malignant lung fibroblasts were tested to study the selectivity of the cytotoxicity [49].
(§2) All stock solutions of the investigated compounds were prepared by dissolving the powered materials in appropriate amounts of DMSO. The final concentration of DMSO never exceeded 5% (v/v) in reactions. The stock solution was stored at 5 °C until it was used.
(§3) Cells were cultured according to the supplier’s instructions. […] On day 2, compounds were added and samples were incubated for 48 h. […] The absorbance of each well was determined by an Automatic ELISA Reader System (Multiskan FC, Thermo Fisher Scientific, Waltham, MA, USA) at 450 nm wavelength.
Data set [2] can be described thus: Cytotoxicity CCK-8 assay, MRC-5 (selectivity). To be noted: human, MRC-5 non-malignant lung fibroblasts.
Text: as §1, §2, §3
Data set [3] relates to Human colon carcinoma cell line (RKO). Put plainly: Cytotoxicity (antiproliferative) CCK-8 assay, RKO. The settings on record: for IC50: Homo sapiens, Colon carcinoma cell, 48 h, read-out: cytotoxicity value against human colon carcinoma cell line (RKO); for toxicity toward RKO (in words): in vitro, CCK-8.
Experimental: Human colon carcinoma cell line (RKO) was also used to test the antiproliferative activity of some of our compounds. In order to assess growth inhibition, cell counting kit (CCK-8) assay was employed.
as §2
Cells were cultured according to the supplier’s instructions. Cells were seeded in 96-well plates at a density of 2–4 × 10^3 cells per well and incubated overnight in 0.1 mL of media supplied with 10% Fetal Bovine Serum (Lonza) in 5% CO2 incubator at 37 °C. On day 2, compounds were added and samples were incubated for 48 h. After treatment, 10 μL of cell counting kit-8 was added into each well for additional 2 h incubation at 37 °C. The absorbance of each well was determined by an Automatic ELISA Reader System (Multiskan FC, Thermo Fisher Scientific, Waltham, MA, USA) at 450 nm wavelength.
Where [4] appears, read: CCK-8, 48 h incubation, concentration corresponding to 50% growth inhibition.

Text for in vitro: as §1, §2, §3

The compound `C[C@@]1(OCC(F)(F)F)N[C@H]1P(=O)(c1ccccc1)c1ccccc1` (relative stereo) [Compound 7, [(2S*,3S*)-3-Methyl-3-(2,2,2-trifluoroethoxy)aziridin-2-yl]diphenylphosphine oxide] came in with a melting point of 98 to 100 °C. In “in vitro”, this compound came in with an IC50 at 48 h greater than 50 µM. In addition, the IC50 in data set [1] (Homo sapiens, A549, 48 h) came to 3.6 ± 0.7 µM.

Compound `C[C@@]1(Oc2ccccc2)N[C@H]1P(=O)(c1ccccc1)c1ccccc1` (relative stereo) [Compound 10a, [(2S*,3S*)-3-Methyl-3-phenoxyaziridin-2-yl]diphenylphosphine oxide] came in with a melting point of 124 to 126 °C. Also, the IC50 at 48 h in the data set “in vitro” is greater than 50 µM. In data set [1] (Homo sapiens, A549, 48 h), the IC50 came to 13.3 ± 1.69 µM.

`COC(C)(OC)C(N)P(=O)(c1ccccc1)c1ccccc1` (stereo not shown) [Compound 4a, (1-Amino-2,2-dimethoxypropyl) diphenylphosphine oxide]: the melting point was in the range of 125 to 127 °C. Moreover, the IC50 at 48 h in data set [2] is greater than 50 µM. Moreover, in data set [3], the IC50 is greater than 50 µM and the “toxicity toward RKO (in words)” value is reported as “do not exhibited any toxicity”. In addition, the IC50 in data set [1] (Homo sapiens, A549, 48 h) is 4.4 ± 0.72 µM.

`CCC(OC)(OC)C(N)P(=O)(c1ccccc1)c1ccccc1` (stereo not shown) [Compound 4b, (1-Amino-2,2-dimethoxybutyl)diphenylphosphine oxide]: the melting point was in the range of 96 to 97 °C. This compound also registered an IC50 at 48 h in data set [2] greater than 50 µM. The IC50 in data set [1] (Homo sapiens, A549, 48 h) amounted to 21.3 ± 0.22 µM.

For the compound `COC(OC)(c1ccccc1)C(N)P(=O)(c1ccccc1)c1ccccc1` (stereo not shown) [Compound 4c, (1-Amino-2,2-dimethoxy-2-phenylethyl)diphenylphosphine oxide], the melting point lay within 113 to 115 °C. The IC50 at 48 h in data set [2] is greater than 50 µM. Besides, in data set [1] (Homo sapiens, A549, 48 h), the IC50 was determined as 16.1 ± 2.03 µM.

Take `CCOC(C)(OCC)C(N)P(=O)(c1ccccc1)c1ccccc1` (stereo not shown) [Compound 4d, (1-Amino-2,2-diethoxypropyl)diphenylphosphine oxide]: the melting point is 126 to 128 °C. The compound further showed an IC50 at 48 h in data set [2] greater than 50 µM. The IC50 in data set [1] (Homo sapiens, A549, 48 h) amounted to 9.6 ± 1.13 µM.

For the compound `COC(C)(OC)C(N)P(=O)(OC(C)C)OC(C)C` (stereo not shown) [Compound 4e, Diisopropyl (1-amino-2,2-dimethoxypropyl)phosphonate], the IC50 in data set [1] (setting [4]) turned out to be 4.6 ± 0.31 µM.

Take `CCOP(=O)(OCC)C(N)C(C)(OC)OC` (stereo not shown) [Compound 4f, Diethyl (1-amino-2,2-dimethoxypropyl)phosphonate]: the IC50 in data set [1] (setting [4]) is 1.3 ± 0.1 µM.

On to `COC(C)(OC)C(NS(=O)(=O)c1ccc(C)cc1)P(=O)(c1ccccc1)c1ccccc1` (stereo not shown) [Compound 5a, N-[1-(Diphenylphosphoryl)-2,2-dimethoxypropyl]-4-methylbenzenesulfonamide], for which the melting point fell in the range of 205 to 207 °C. The compound also showed an IC50 at 48 h in data set [2] greater than 50 µM. In data set [1] (Homo sapiens, A549, 48 h), the IC50 came to 8.2 ± 0.23 µM.

In data set [2], `COC(C)(OC)C(NS(=O)(=O)c1ccc(C)cc1)P(=O)(OC(C)C)OC(C)C` (stereo not shown) [Compound 5b, Diisopropyl [2,2-dimethoxy-1-((4-methylphenyl)sulfonamido)propyl]phosphonate] came in with an IC50 at 48 h greater than 50 µM. Also, the IC50 in data set [1] (Homo sapiens, A549, 48 h) came out at 1.7 ± 0.3 µM.

Consider `CCOP(=O)(OCC)C(NS(=O)(=O)c1ccc(C)cc1)C(C)(OC)OC` (stereo not shown) [Compound 5c, Diethyl [2,2-dimethoxy-1-((4-methylphenyl)sulfonamido)propyl]phosphonate], for which the IC50 in “in vitro” was greater than 50 µM; in data set [1] (Homo sapiens, A549, 48 h) it was 4.5 ± 0.45 µM.

Turning to `CCOC(C)(OCC)C(NS(=O)(=O)c1ccc(C)cc1)P(=O)(OCC)OCC` (stereo not shown) [Compound 5d, Diethyl [2,2-diethoxy-1-((4-methylphenyl)sulfonamido)propyl]phosphonate], the IC50 in the data set “in vitro” was greater than 50 µM; in data set [1] (Homo sapiens, A549, 48 h) it was 3.7 ± 0.49 µM.

Consider `CC(=O)C(NS(=O)(=O)c1ccc(C)cc1)P(=O)(OC(C)C)OC(C)C` (stereo not shown) [Compound 6, Diisopropyl [1-((4-methylphenyl)sulfonamido)-2-oxopropyl]phosphonate], for which the melting point is 121 to 122 °C. Further, in data set [1] (Homo sapiens, A549, 48 h), the IC50 is greater than 50 µM. The “toxicity toward A549 (in words)” value in data set [1] was “do not exhibited any toxicity”.

Consider `C=C(OCC(F)(F)F)C(N)P(=O)(c1ccccc1)c1ccccc1` (stereo not shown) [Compound 8, [1-Amino-2-(2,2,2-trifluoroethoxy)allyl]diphenylphosphine oxide], for which the IC50 at 48 h in data set [2] is greater than 50 µM. In addition, the IC50 in data set [1] (Homo sapiens, A549, 48 h) is greater than 50 µM. Also, the “toxicity toward A549 (in words)” value in data set [1] is given as “do not exhibited any toxicity effect”.

`C=C(OCC(F)(F)F)C(NS(=O)(=O)c1ccc(C)cc1)P(=O)(c1ccccc1)c1ccccc1` (stereo not shown) [Compound 9, N-[1-(Diphenylphosphoryl)-2-(2,2,2-trifluoroethoxy)allyl]-4-methylbenzenesulfonamide]: the melting point was in the range of 201 to 203 °C. Moreover, the IC50 at 48 h in data set [2] was greater than 50 µM. Also, in data set [1] (Homo sapiens, A549, 48 h), the IC50 worked out at 3.5 ± 0.77 µM.

Compound `C=C(Oc1ccccc1)C(N)P(=O)(c1ccccc1)c1ccccc1` (stereo not shown) [Compound 11a, (1-Amino-2-phenoxyallyl)diphenylphosphine oxide] returned an IC50 at 48 h in data set [2] greater than 50 µM. In addition, in data set [3], the IC50 is greater than 50 µM and the “toxicity toward RKO (in words)” value is listed as “do not exhibited any toxicity”. The IC50 in data set [1] (Homo sapiens, A549, 48 h) was found to be 1.9 ± 0.13 µM.

In data set [2], `C=C(Oc1ccc2ccccc2c1)C(N)P(=O)(c1ccccc1)c1ccccc1` (stereo not shown) [Compound 11b, [1-Amino-2-(naphyhalen-2-yloxy)allyl]diphenylphosphine oxide] displayed an IC50 at 48 h of 33.6 ± 3.73 µM. In addition, in data set [1] (Homo sapiens, A549, 48 h), the IC50 is 2.7 ± 0.44 µM.

On to `C=C(Oc1ccccc1)C(NS(=O)(=O)c1ccc(C)cc1)P(=O)(OCC)OCC` (stereo not shown) [Compound 12a, Diethyl [1-((4-methylphenyl)sulfonamido)-2-phenoxyallyl]phosphonate], for which the melting point was in the range of 117 to 119 °C. The IC50 in the data set “in vitro” was greater than 50 µM. Besides, the IC50 in data set [1] (Homo sapiens, A549, 48 h) worked out at 4.8 ± 0.9 µM.

`C=C(Oc1ccc2ccccc2c1)C(NS(=O)(=O)c1ccc(C)cc1)P(=O)(OCC)OCC` (stereo not shown) [Compound 12b, Diethyl [1-((4-methylphenyl)sulfonamido)-2-(naphthalen-2-yloxy)allyl]-phosphonate] registered a melting point of 147 to 149 °C. Besides, the IC50 in the data set “in vitro” came out at 17.5 ± 1.47 µM. In addition, in data set [1] (Homo sapiens, A549, 48 h), the IC50 was found to be 2.1 ± 0.22 µM.

`C=C(Sc1ccccc1)C(N)P(=O)(c1ccccc1)c1ccccc1` (stereo not shown) [Compound 15a, [1-Amino-2-(phenylthio)allyl]diphenylphosphine oxide] displayed an IC50 at 48 h in data set [2] of 15.9 ± 2.79 µM. Further, in data set [3], the IC50 was greater than 50 µM and the “toxicity toward RKO (in words)” value is “do not exhibited any toxicity”. Besides, the IC50 in data set [1] (Homo sapiens, A549, 48 h) was determined as 2.6 ± 0.68 µM.

`C=C(Sc1ccc(C)cc1)C(N)P(=O)(c1ccccc1)c1ccccc1` (stereo not shown) [Compound 15b, [1-Amino-2-(p-tolylthio)allyl]diphenylphosphine oxide] yielded an IC50 at 48 h in data set [2] of 14.9 ± 1.61 µM. Also, the IC50 in data set [1] (Homo sapiens, A549, 48 h) is 5.1 ± 0.77 µM.

For `C=C(Sc1ccc(F)cc1)C(N)P(=O)(c1ccccc1)c1ccccc1` (stereo not shown) [Compound 15c, [1-Amino-2-((4-fluorophenyl)thio)allyl]diphenylphosphine oxide], the IC50 at 48 h in data set [2] was greater than 50 µM. Besides, in data set [3], the IC50 was greater than 50 µM and the “toxicity toward RKO (in words)” value is reported as “do not exhibited any toxicity”. Also, the IC50 in data set [1] (Homo sapiens, A549, 48 h) was 0.1 ± 0.08 µM.

`C=C(Sc1ccc(OC)cc1)C(N)P(=O)(c1ccccc1)c1ccccc1` (stereo not shown) [Compound 15d, [1-Amino-2-((4-methoxyphenyl)thio)allyl]diphenylphosphine oxide] gave an IC50 at 48 h in data set [2] greater than 50 µM. Also, the IC50 in data set [1] (Homo sapiens, A549, 48 h) was 2.6 ± 0.42 µM.

Take `C=C(Sc1ccccc1)C(N)P(=O)(OCC)OCC` (stereo not shown) [Compound 15e, Diethyl [1-amino-2-(phenylthio)allyl]phosphonate]: the IC50 in data set [1] (setting [4]) was found to be 7.2 ± 0.49 µM.

Consider `C=C(Sc1ccccc1)C(NS(=O)(=O)c1ccc(C)cc1)P(=O)(c1ccccc1)c1ccccc1` (stereo not shown) [Compound 16a, N-[1-(Diphenylphosphoryl)-2-(phenylthio)allyl]-4-methylbenzenesulfonamide], for which the melting point was 199 to 201 °C. The compound also showed an IC50 at 48 h in data set [2] greater than 50 µM. In addition, the IC50 in data set [1] (Homo sapiens, A549, 48 h) was determined as 1.2 ± 0.09 µM.

The compound `C=C(Sc1ccc(C)cc1)C(NS(=O)(=O)c1ccc(C)cc1)P(=O)(c1ccccc1)c1ccccc1` (stereo not shown) [Compound 16b, N-[1-(Diphenylphosphoryl)-2-(p-tolylthio)allyl]-4-methylbenzene-sulfonamide] came in with a melting point of 180 to 182 °C. The compound further registered an IC50 at 48 h in data set [2] greater than 50 µM. Also, the IC50 in data set [1] (Homo sapiens, A549, 48 h) is 2.1 ± 0.15 µM.

On to `C=C(Sc1ccccc1)C(NS(=O)(=O)c1ccc(C)cc1)P(=O)(OCC)OCC` (stereo not shown) [Compound 16c, Diethyl [1-((4-methylphenyl)sulfonamido)-2-(phenylthio)allyl]phosphonate], for which the melting point lay in the range of 99 to 101 °C. This compound showed an IC50 in the data set “in vitro” of 24.1 ± 3.55 µM. Moreover, in data set [3], the IC50 was greater than 50 µM and the “toxicity toward RKO (in words)” value is on record as “do not exhibited any toxicity”. Besides, the IC50 in data set [1] (Homo sapiens, A549, 48 h) was determined as 0.2 ± 0.07 µM.

As to `C=C(Sc1ccc(F)cc1)C(NS(=O)(=O)c1ccc(C)cc1)P(=O)(OCC)OCC` (stereo not shown) [Compound 16d, Diethyl [2-((4-fluorophenyl)thio)-1-((4-methylphenyl)sulfonamido)-allyl]-phosphonate], the melting point lay in the range of 117 to 119 °C. Also, the IC50 in the data set “in vitro” was greater than 50 µM. In data set [1] (Homo sapiens, A549, 48 h), the IC50 came out at 3 ± 0.98 µM.

Compound `C=C(Sc1ccc(C)cc1)C(NS(=O)(=O)c1ccc(C)cc1)P(=O)(OCC)OCC` (stereo not shown) [Compound 16e, Diethyl [1-((4-methylphenyl)sulfonamido)-2-(p-tolylthio)allyl]phos-phonate] returned a melting point of 168 to 170 °C. The same compound had an IC50 in the data set “in vitro” greater than 50 µM. Besides, the IC50 in data set [1] (Homo sapiens, A549, 48 h) is 3.9 ± 0.63 µM.
